In patent US10053468B2, “Heterocyclic compound” (TAKEDA PHARMACEUTICAL COMPANY LIMITED, priority 2013, dated 2018):
Where two headings read alike, the source gives them in different places.

Tests used:
[1] = system: IL-17 production in human blood; experiment: Effect on IL-17 production in human blood; format: cell-based; details: 72 h, 10 μM test compound, IL-23 and Dynabeads stimulation, 3 days, read-out: Percent Inhibition at 10 μM (IL-17 production)
Experimental: Effect on IL-17 Production in Human Blood
The inhibitory effect of the test compound on IL-17 production in human blood was evaluated as follows. First, 150 μL of peripheral blood collected from healthy individuals using heparinized vacuum blood collection tubes was dispensed into each well of a 96-well plate (Corning), and 45 μL of RPMI 1640 medium (Gibco) containing 10% fetal bovine serum (FBS, Hyclone) and 30 μL of the test compound diluted with the medium was added to each well. The plate was then cultured for 30 min at 37° C. Cells were subsequently stimulated by adding 30 μL of 100 ng/mL human IL-23 (R&D) and 45 μL of Dynabeads Human (Invitrogen) to each well and culturing the plate for 3 days at 37° C. In wells without stimulation, 75 μL of RPMI 1640 medium containing 10% FBS was added instead of the IL-23 and Dynabeads solution. After culturing for 3 days, the culture supernatant was collected, and the amount of IL-17 in the supernatant was measured using an IL-17 ELISA kit (R&D).
The results of the above-described measurements (percent inhibition of IL-17 production with 10 μM of the test compound) are shown in Table 4.

IL-17A gene expression = experiment: Effect on IL-23-induced cytokine expression in mice; format: in vivo, Balb/c mice; details: Mus musculus, 30 min before and 8 hr after IL-23, versus the negative control group, read-out: Percent inhibition of IL-17A gene expression; for inhibition in vivo at 10 mg/kg: dose 10 mg/kg oral; for inhibition in vivo at 30 mg/kg: dose 30 mg/kg oral
Experimental: Effect on IL-23-induced Cytokine Expression in Mice
A mouse IL-23 solution (500 ng/10 μL, prepared by Takeda Pharmaceutical Company Limited) or PBS (10 μL, negative control group) was administered intradermally in the ear of Balb/c mice (Charles River Japan, male, 7 weeks old). Twenty-four hr after administration, the ear was resected under isoflurane anesthesia. The test compound was suspended in 0.5% methylcellulose and administered orally 30 min before and 8 hr after IL-23 administration.
RNA extraction from the ear tissue and quantitative PCR were performed as follows. Specifically, ear tissue 5 mm in diameter was punched from an area of the resected ear centering on the IL-23 injection site, and the tissue was immersed in RNAlater (QIAGEN) for at least 18 hr. The RNAlater-treated ear tissue was homogenized in 350 μL of RLT buffer (RNeasy mini kit, QIAGEN) and treated (55° C., 10 min) with Proteinase K (QIAGEN). Total RNA was then extracted according to the RNeasy mini kit protocol. The RNA thus obtained was then reverse transcribed into cDNA using the High-Capacity RNA-to-cDNA kit (Applied Biosystems), and the amount of each cytokine expressions was measured by real-time PCR (Viia7™, Applied Biosystems). The PCR buffer used was TaqMan Fast Advanced Master Mix (Applied Biosystems), and TaqMan Gene Expression Assays (Applied Biosystems) Mm00439618 ml (IL-17A) and 4352341E (β-actin) were used for cytokine gene detection. The IL-17A gene expression level was normalized to the R-actin gene expression level, and the percent inhibition of IL-17A gene expression with the test compound was then calculated.
The results obtained with the above-described method (percent inhibition of IL-17A gene expression with oral administration of the test compound) are shown in Table 5.

RORγt [2] = target: T1, RORγt (Homo sapiens, UniProt P51449); experiment: Cofactor recruitment test (Alpha Screen, biotinylated SRC-1 peptide); format: biochemical; details: read-out: Signal value inhibitory rate at test compound 1 μM (%)
T1 sequence (P51449 1-497 isoform P51449-2): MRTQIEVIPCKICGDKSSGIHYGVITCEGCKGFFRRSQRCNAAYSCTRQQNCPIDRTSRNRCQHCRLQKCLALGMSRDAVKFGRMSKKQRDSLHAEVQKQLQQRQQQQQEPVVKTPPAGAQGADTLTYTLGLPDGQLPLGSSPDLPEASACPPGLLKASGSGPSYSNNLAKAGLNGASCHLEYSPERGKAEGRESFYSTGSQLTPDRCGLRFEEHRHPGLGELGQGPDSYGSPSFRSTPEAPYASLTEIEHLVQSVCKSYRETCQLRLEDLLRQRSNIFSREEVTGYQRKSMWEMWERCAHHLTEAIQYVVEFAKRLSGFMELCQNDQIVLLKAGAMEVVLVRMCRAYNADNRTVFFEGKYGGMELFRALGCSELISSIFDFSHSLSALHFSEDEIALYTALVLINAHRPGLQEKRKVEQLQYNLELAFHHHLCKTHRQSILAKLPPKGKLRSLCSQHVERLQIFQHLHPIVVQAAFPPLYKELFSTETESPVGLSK
Experimental: Cofactor Recruitment Test
Cofactor recruitment test was performed by Alpha Screen (Histidine Detection Kit, PerkinElmer) method. First, a test compound was diluted with an assay buffer (50 mM Tris-HCl (pH 7.5), 50 mM KCl, 1 mM DTT, 0.1% BSA) and added to a 384 well plate by 5 μL. […] The mixture was stood in a dark place for 1 hr, and the signal value was measured by Envision (PerkinElmer).

RORγt [3] = target: T1, RORγt; experiment: RORγt binding test using fluorescent-labeled cholesterol (TR-FRET); details: read-out: Binding inhibitory rate of fluorescent-labeled cholesterol to RORγt at test compound 1 μM (%)
Outline: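 After 20 min at room temperature with His-tagged RORγt and BODIPY-cholesterol in pH 7.5 Tris buffer (NaCl, DTT, BSA), compound wells got terbium anti-His antibody for another 20 min. Time-resolved FRET was read with excitation 320 nm, emission 520 nm and a 100 µs delay.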

RORγt [4] = target: T1, RORγt; experiment: Jurkat reporter test (human IL-17 ROR response element luciferase, RORγt vector); format: cell-based; details: read-out: Luminescence level inhibitory rate at test compound 3 μM (%)
Outline: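 Luminescence (Bright-Glo, 10 min, RT) was measured after overnight compound treatment of electroporated Jurkat cells (1350 V, 10 ms interval, 3 pulses). The reaction medium was RPMI with 10% lipid-reduced FCS, 10 mM HEPES (pH 7.5) and 5 μM lovastatin.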

RORγt [5] = target: T1, RORγt; experiment: RORγt binding test using fluorescent-labeled synthetic ligand (TR-FRET); details: read-out: Binding inhibitory rate of fluorescent-labeled synthetic ligand to RORγt at test compound 1 μM (%)
Outline: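 His-tagged RORγt (diluted to 240 nM) with compound, then fluorescent synthetic ligand (diluted to 12 μM), 20 min at room temperature, followed by Tb anti-His antibody (diluted to 8 nM), 20 min.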

[6] = test compound 3 μM, Jurkat cells

COc1ccc2c(n1)CCN(C(=O)N1CC(CC(=O)O)C1)[C@H]2C(=O)Nc1cc(F)c2c(c1)CCC2(C)C [Example 273, (1-(((5R)-5-((7-fluoro-1,1-dimethyl-2,3-dihydro-1H-inden-5-yl)carbamoyl)-2-methoxy-7,8-dihydro-1,6-naphthyridin-6(5H)-yl)carbonyl)azetidin-3-yl)acetic acid]
inhibition at 10 µM [1]: 89%
inhibition in vivo at 10 mg/kg (IL-17A gene expression): 77%

CCOc1ccc2c(c1)CCN(C(=O)CC[C@H](C)C(=O)O)[C@H]2C(=O)Nc1cc(F)c2c(c1)CCC2(C)C [Example 266, (2S)-5-((1R)-6-ethoxy-1-((7-fluoro-1,1-dimethyl-2,3-dihydro-1H-inden-5-yl)carbamoyl)-3,4-dihydroisoquinolin-2(1H)-yl)-2-methyl-5-oxopentanoic acid]
inhibition at 10 µM [1]: 88%

COc1ccc2c(c1)CCN(C(=O)CCCC(=O)O)[C@H]2C(=O)Nc1ccc([Si](C)(C)C)c(F)c1 [Example 135, 5-((1R)-1-((3-fluoro-4-(trimethylsilyl)phenyl)carbamoyl)-6-methoxy-3,4-dihydroisoquinolin-2(1H)-yl)-5-oxopentanoic acid]
inhibition at 1 µM (RORγt [2]): 97%
inhibition at 1 µM (RORγt [3]): 102%
inhibition at 3 µM (RORγt [4]; Jurkat): 104%
inhibition at 1 µM (RORγt [5]): 101%
inhibition in vivo at 30 mg/kg (IL-17A gene expression): 68%

COCc1ccc2c(c1)CCN(C(=O)CCCC(=O)O)[C@H]2C(=O)Nc1cc(F)c(C(C)(C)C)c(F)c1 [Example 144, 5-((1R)-1-((4-tert-butyl-3,5-difluorophenyl)carbamoyl)-6-(methoxymethyl)-3,4-dihydroisoquinolin-2 (1H)-yl)-5-oxopentanoic acid]
inhibition at 1 µM (RORγt [2]): 97%
inhibition at 1 µM (RORγt [3]): 101%
inhibition at 10 µM [1]: 86%
inhibition at 3 µM (RORγt [4]; [6]): 101%
inhibition at 1 µM (RORγt [5]): 101%

COc1ccc2c(n1)CCN(C(=O)CCCC(=O)O)[C@H]2C(=O)Nc1ccc([Si](C)(C)C)c(F)c1 [Example 140, 5-((5R)-5-((3-fluoro-4-(trimethylsilyl)phenyl)carbamoyl)-2-methoxy-7,8-dihydro-1,6-naphthyridin-6(5H)-yl)-5-oxopentanoic acid]
inhibition at 1 µM (RORγt [2]): 95%
inhibition at 1 µM (RORγt [3]): 100%
inhibition at 10 µM [1]: 91%
inhibition at 3 µM (RORγt [4]; Jurkat): 102%
inhibition at 1 µM (RORγt [5]): 101%
inhibition in vivo at 30 mg/kg (IL-17A gene expression): 90%

COc1ccc2c(c1)CCN(C(=O)N1CC(CC(=O)O)C1)[C@H]2C(=O)Nc1cc(F)c([Si](C)(C)C)c(F)c1 [Example 260, (1-(((1R)-1-((3,5-difluoro-4-(trimethylsilyl)phenyl)carbamoyl)-6-methoxy-3,4-dihydroisoquinolin-2(1H)-yl)carbonyl)azetidin-3-yl)acetic acid]
inhibition at 1 µM (RORγt [2]): 95%
inhibition at 10 µM [1]: 89%
inhibition at 3 µM (RORγt [4]; Jurkat): 101%
inhibition at 1 µM (RORγt [5]): 102%
inhibition in vivo at 10 mg/kg (IL-17A gene expression): 76%

C[Si](C)(C)c1c(F)cc(NC(=O)[C@H]2c3ccc4c(c3CCN2C(=O)N2CC(CC(=O)O)C2)OCO4)cc1F [Example 272, (1-(((6R)-6-((3,5-difluoro-4-(trimethylsilyl)phenyl)carbamoyl)-8,9-dihydro[1,3]dioxolo[4,5-f]isoquinolin-7(6H)-yl)carbonyl)azetidin-3-yl)acetic acid]
inhibition at 1 µM (RORγt [2]): 101%
inhibition at 10 µM [1]: 93%
inhibition at 3 µM (RORγt [4]; Jurkat): 100%
inhibition at 1 µM (RORγt [5]): 102%
inhibition in vivo at 10 mg/kg (IL-17A gene expression): 86%

COc1ccc2c(c1)CCN(C(=O)c1cc(O)no1)[C@H]2C(=O)Nc1cc(F)c2c(c1)CCC2(C)C [Example 68, (1R)-N-(7-fluoro-1,1-dimethyl-2,3-dihydro-1H-inden-5-yl)-2-((3-hydroxy-1,2-oxazol-5-yl)carbonyl)-6-methoxy-1,2,3,4-tetrahydroisoquinoline-1-carboxamide]
inhibition at 1 µM (RORγt [2]): 73%
inhibition at 1 µM (RORγt [3]): 103%
inhibition at 3 µM (RORγt [4]; [6]): 99%
inhibition at 1 µM (RORγt [5]): 101%
inhibition in vivo at 100 mg/kg (IL-17A gene expression; dose 100 mg/kg oral): 90%

COc1ccc2c(c1)CCN(C(=O)CCCC(=O)O)[C@H]2C(=O)Nc1cc(F)c([Si](C)(C)C)c(F)c1 [Example 82, 5-((1R)-1-((3,5-difluoro-4-(trimethylsilyl)phenyl)carbamoyl)-6-methoxy-3,4-dihydroisoquinolin-2(1H)-yl)-5-oxopentanoic acid]
inhibition at 10 µM [1]: 75%
inhibition in vivo at 10 mg/kg (IL-17A gene expression): 85%

COc1ccc2c(c1)CCN(C(=O)N1CC(CC(=O)O)C1)[C@H]2C(=O)Nc1ccc([Si](C)(C)C)c(F)c1 [Example 279, (1-(((1R)-1-((3-fluoro-4-(trimethylsilyl)phenyl)carbamoyl)-6-methoxy-3,4-dihydroisoquinolin-2(1H)-yl)carbonyl)azetidin-3-yl)acetic acid]
inhibition at 1 µM (RORγt [2]): 89%
inhibition at 3 µM (RORγt [4]; Jurkat): 100%
inhibition at 1 µM (RORγt [5]): 102%
inhibition in vivo at 10 mg/kg (IL-17A gene expression): 71%

CCOc1ccc2c(c1)CCN(C(=O)CCCC(=O)O)[C@H]2C(=O)Nc1cc(F)c([Si](C)(C)C)c(F)c1 [Example 179, 5-((1R)-1-((3,5-difluoro-4-(trimethylsilyl)phenyl)carbamoyl)-6-ethoxy-3,4-dihydroisoquinolin-2(1H)-yl)-5-oxopentanoic acid]
inhibition at 1 µM (RORγt [2]): 94%
inhibition at 10 µM [1]: 82%
inhibition at 3 µM (RORγt [4]; Jurkat): 102%
inhibition at 1 µM (RORγt [5]): 101%
inhibition in vivo at 30 mg/kg (IL-17A gene expression): 95%
